Results as given in paper PMC6662822, “Rational drug-design approach supported with thermodynamic studies — a peptide leader for the efficient bi-substrate inhibitor of protein kinase CK2” (Scientific Reports, 2019).
Where a SMILES comes first, the peptide text is derived from it. Where no end group is shown, it is not given here. The star is where a group is joined. X1 = O=C(c1c(Br)c(Br)c(Br)c2nn[nH]c12)*

Experiments:
hCK2α [1] = molecular target: T1, hCK2α (Homo sapiens, UniProt P68400); experiment: ADP-Glo kinase assay, inhibitory activity towards human CK2α; type: biochemical
T1 construct: His-tag; made in house
Protocol: The ADP-Glo kinase assay (Promega) was used to measure the inhibition effect of the tested compounds. The kinase assay was carried in 96-well plate in volume of 25 μl in 20 mM Tris–HCl (pH 7.5) buffer, containing 100 ng hCK2α (1 μl), 10 μM CK2 substrate peptide […] (Biaffin GmbH & Co KG), 10 μM ATP, 20 mM MgCl2 and 2.5 μl of serially diluted ligand in DMSO. The reaction was initiated with enzyme in and kept going for 20 min at 30 °C. Reaction was stopped by adding 25 μl of ADP-Glo reagent. After incubation at room temperature for 40 min (to consume the remaining […]) 50 μl of kinase detection reagent were added and incubated for additional 30 minutes to produce luminescence signal. Luminescence was measured with The SpectraMax iD3 Multi-Mode Microplate Reader (Molecular Devices).

hCK2α [2] = molecular target: T1, hCK2α; experiment: Relaxation-filtered 1H NMR (transverse relaxation) of peptides in the presence of hCK2α; type: binding; conditions: for R2,f, relaxation rate in the presence of hCK2α: 25 μM hCK2α, 2.5 mM peptide (100-fold excess), 25 mM Tris-HCl pH 7, 0.25 M NaCl, 10% D2O, global two-exponential fit, higher = stronger binding; for R2,f, relaxation rate in the presence of hCK2α / R2,s, relaxation rate for the free peptide: 25 °C; for Relative binding to hCK2α, in words: relaxation-filtered NMR, compared with the other tested peptides; for R2,s, relaxation rate for the free peptide: same samples, slower component of the global two-exponential fit
Protocol: NMR samples containing tested peptides and hCk2α were prepared in 25 mM Tris–HCl (pH 7, 0.25 M NaCl) buffer with 10% D2O. The protein concentration was 25 μM, and a 100-fold peptide excess (2.5 mM) was used throughout the studies.
The scoring of the peptides’ binding affinities towards hCK2α was done according to the results of ^1H transverse (T2) relaxation filtering experiment. All spectra were recorded at 25 °C on Bruker Avance 500 NMR spectrometer (11.7 T) using 18 delays (0, 1, 2, 3, 4, 5, 10, 15, 20, 25, 30, 35, 40, 45, 50, 100, 150 and 200 ms). The spectra of 7500 Hz spectral width, 16k data points each, were collected using 16 scans with 2.0 s recycling delay preceded by 8 dummy scans.
NMR data were further processed and analyzed with the SpinWorks software (version 4.2.8.0), using cosine-squared window function and Gaussian filter resulting in 0.3 Hz broadening with no solvent filter applied prior to Fourier transformation. We analyzed ^1H transverse relaxation rates of selected nuclei representative for each type of amino acid residues present in the tested peptides, i.e Hγ of Glu (2.3ppm), Hβ of Asp (2.8ppm), Hβ of Ser (3.8ppm), Hγ(CH3) of Thr (1.1 ppm) and Hε of Lys (2.9ppm), respectively. Additionally, the resonance signals of amide protons (8.2–8.9ppm) were also analyzed. We performed the relaxation-filtered experiment, with the relaxation delay varying in the range of 1 to 200 ms. Variation in the intensity of particular resonance signals were analyzed using the model of two-exponential decay (1):1 y=A1⋅exp(t∗R2,f)+A2⋅exp(t∗R2,s)+y0 where R2,s and R2,f are the transverse relaxation rates of the free and the fraction of the virtually bound peptide, respectively. For each peptide the global optimization procedure was applied for all identified resonance signals.

T1 sequence (P68400 whole entry): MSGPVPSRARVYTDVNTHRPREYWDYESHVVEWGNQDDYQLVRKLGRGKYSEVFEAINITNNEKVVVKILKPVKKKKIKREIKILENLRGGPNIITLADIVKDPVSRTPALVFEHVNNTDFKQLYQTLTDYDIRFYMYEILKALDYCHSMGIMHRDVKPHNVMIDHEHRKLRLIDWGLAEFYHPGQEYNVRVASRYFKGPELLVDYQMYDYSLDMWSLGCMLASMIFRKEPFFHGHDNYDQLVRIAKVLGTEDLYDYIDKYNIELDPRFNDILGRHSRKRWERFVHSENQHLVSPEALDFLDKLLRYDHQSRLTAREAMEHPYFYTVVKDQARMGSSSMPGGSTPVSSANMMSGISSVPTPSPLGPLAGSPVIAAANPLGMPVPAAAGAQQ

Row | R2,f, relaxation rate in the presence of hCK2α (hCK2α [2]) | R2,s, relaxation rate for the free peptide (hCK2α [2]) | Compound | further results
1 | – | – | O=C(O)c1c(Br)c(Br)c(Br)c2nn[nH]c12 [7-COOH-Br3Bt] | IC50 (hCK2α [1]; ADP-Glo, 100 ng hCK2α, 10 μM RRRDDDSDDD, 10 μM ATP, 20 mM MgCl2, pH 7.5, 20 min 30 °C, global fit of three independent experiments): 8 ± 6.3 µM
2 | – | – | NC(=O)[C@H](CCC(=O)O)NC(=O)[C@H](CCC(=O)O)NC(=O)[C@H](CCC(=O)O)NC(=O)[C@H](CO)NC(=O)[C@H](CCC(=O)O)NC(=O)[C@@H](N)CCCCNC(=O)c1c(Br)c(Br)c(Br)c2nn[nH]c12 [bi-substrate inhibitor] (H-K(X1)ESEEE-NH2) | Enhancement of inhibitory activity versus low-mass precursor 7-COOH-Br3Bt (hCK2α [1]; ratio of IC50 values): over 10 fold
3 | 7.1 ± 0.8 s⁻¹ | – | DDTDDD-NH2 | Relative binding to hCK2α, in words (hCK2α [2]): binds visibly weaker
4 | – | – | DESEEE-NH2 [peptide named only in b23, possibly a misprint of DETEEE-NH2] | Relative binding to hCK2α, in words (hCK2α [2]): lower affinity
5 | 10.4 ± 1.6 s⁻¹ | 2.2 ± 0.6 s⁻¹ | DETEEE-NH2 | –
6 | 14.9 ± 2.5 s⁻¹ | 1.5 ± 0.7 s⁻¹ | EDTEEE-NH2 | –
7 | 15.4 ± 2.1 s⁻¹ | 2.3 ± 0.5 s⁻¹ | EETDEE-NH2 | –
8 | 17.2 ± 4.8 s⁻¹ | 3.7 ± 0.5 s⁻¹ | EETEDE-NH2 | –
9 | 16.1 ± 2.3 s⁻¹ | 2.2 ± 0.5 s⁻¹ | EETEED-NH2 | –
